Where “and” joins values, the source holds several entries; their conditions need not be identical. Equal entries are not always repeated. Where two headings read alike, the source gives them in different places.
Legend:
[1] = molecular target: T1, mMOR (Mus musculus, UniProt P42866); test: Radioligand competition binding ([125I]IBNtxA), CHO membranes, mMOR; settings: vs 125IBNtxA (0.1 nM), mean ± SEM
T1 construct: expressed in transfected cells

[2] = molecular target: T2, hMOR (Homo sapiens, UniProt P35372); test: Tango β-arrestin recruitment assay, hMOR; assay type: cell-based
T2 construct: expressed in transfected cells; host or cells: HEK 293T (ATCC CRL-11268), transient

[3] = molecular target: T3, mDOR (Mus musculus, UniProt P32300); test: Radioligand competition binding ([125I]IBNtxA), CHO membranes, mDOR; settings: vs 125IBNtxA (0.1 nM), CHO membranes, mean ± SEM
T3 construct: expressed in transfected cells

[4] = molecular target: T3, mDOR; test: [35S]GTPγS functional assay, mDOR; assay type: biochemical
[5] = molecular target: T2, hMOR; test: cell-based; assay type: cell-based
[6] = molecular target: T4, rat kappa opioid receptor (rKOR) (Rattus norvegicus, UniProt P34975); test: BRET assay, arrestin recruitment, rKOR; assay type: cell-based
T4 construct: expressed in transfected cells; host or cells: HEK-293T, transient (PEI), with BRET sensor cDNAs

[7] = molecular target: T5, hDOR (Homo sapiens, UniProt P41143); test: cAMP inhibition assay, hDOR; assay type: cell-based; parameters: expressed in transfected cells
[8] = molecular target: T4, rat kappa opioid receptor (rKOR); test: BRET assay, G-protein activation, rKOR; assay type: cell-based; settings: for Bias factor toward G-protein, rKOR: BRET assays, against U50,488H as control; for EC50: read-out: Gi EC50 rKOR
[9] = molecular target: T6, mouse mu opioid receptor (mMOR) (Mus musculus, UniProt P42866); test: cell-based; assay type: cell-based
T6 construct: expressed in transfected cells; host or cells: HEK-293T, transient (PEI), with BRET sensor cDNAs

[10] = molecular target: T6, mouse mu opioid receptor (mMOR); test: cell-based; assay type: cell-based; remark: listed apart in the source
[11] = molecular target: T7, hKOR (Homo sapiens, UniProt P41145); test: cAMP inhibition assay (GloSensor, HEK 293T), hKOR; assay type: cell-based; settings: for Bias factor toward G protein, hKOR: cAMP inhibition vs Tango, against U50,488H as control
T7 construct: expressed in transfected cells; host or cells: HEK 293T (ATCC CRL-11268), transient

[12] = molecular target: T8, mKOR (Mus musculus, UniProt P33534); test: [35S]GTPγS functional assay, mKOR; assay type: biochemical
T8 construct: expressed in transfected cells

[13] = molecular target: T9, mouse delta opioid receptor (mDOR) (Mus musculus, UniProt P32300); test: BRET assay, G-protein activation, mDOR; assay type: cell-based
T9 construct: expressed in transfected cells; host or cells: HEK-293T, transient (PEI), with BRET sensor cDNAs

[14] = molecular target: T1, mMOR; test: [35S]GTPγS functional assay, mMOR; assay type: biochemical
[15] = molecular target: T9, mouse delta opioid receptor (mDOR); test: BRET assay, arrestin recruitment, mDOR; assay type: cell-based
[16] = molecular target: T8, mKOR; test: Radioligand competition binding ([125I]IBNtxA), CHO membranes, mKOR; settings: vs 125IBNtxA (0.1 nM), mean ± SEM
[17] = molecular target: T5, hDOR; test: Tango β-arrestin recruitment assay, hDOR; assay type: cell-based; parameters: expressed in transfected cells; host or cells: HTLA cells expressing TEV fused-beta-Arrestin2
[18] = molecular target: T7, hKOR; test: Tango β-arrestin recruitment assay, hKOR; assay type: cell-based
[19] = molecular target: T10, Y312W-hKOR (Homo sapiens, UniProt P41145, Y312W); test: Tango-arrestin recruitment assay, Y312W-hKOR mutant; assay type: cell-based; parameters: expressed in transfected cells
[20] = molecular target: T10, Y312W-hKOR; test: cAMP inhibition assay, Y312W-hKOR mutant; assay type: cell-based; parameters: expressed in transfected cells; host or cells: HEK 293T (inferred from the general cAMP method)
[21] = BRET, normalized to Emax of U50,488H
[22] = mDOR, BRET, normalized to DPDPE
[23] = read-out: Arrestin recruitment Emax % ± SEM

O=C(N[C@@H]1CC[C@@]2(O)[C@H]3Cc4ccc(O)c5c4[C@@]2(CCN3CC2CC2)[C@H]1O5)c1cccc(I)c1 [IBNtxA, reference compound]
Ki [1]: 0.11 ± 0.02 nM | Arrestin pEC50±SEM hMOR ([2]; Tango): 8.2±0.002 | EC50 ([2]; Tango): 5.86 nM | Arrestin Emax hMOR ([2]; Tango, normalized to Emax of DAMGO): 29±0.02 | Ki [3]: 0.24 ± 0.05 nM | EC50 ([4]; [35S]GTPγS, nM ± SEM): 4.08 ± 0.67 nM | mDOR Emax ([4]; [35S]GTPγS, relative to DPDPE): 95 ± 2% | Bias factor toward G protein, hMOR [5]: 23 | Gi Emax hMOR [5]: 95±2 | Gi pEC50±SEM hMOR [5]: 10.2±0.006 | EC50 ([5]; read-out: Gi EC50 hMOR): 0.07 nM | Arrestin pEC50±SEM rKOR ([6]; BRET): 8.9±0.02 | EC50 ([6]; BRET): 1.23 nM | Arrestin Emax rKOR [6, 21]: 133±7.3 | EC50 ([7]; hDOR): 0.43 nM | cAMP inhibition pEC50 ± SEM ([7]; hDOR): 9.3 ± 0.03 | cAMP inhibition Emax % ± SEM ([7]; hDOR, normalized to DPDPE or DADLE): 106 ± 1% | Gi pEC50±SEM rKOR ([8]; BRET): 10.2±0.1 | Bias factor toward G-protein, rKOR [8]: 0.6 | Gi Emax rKOR [8, 21]: 101±2.3 | EC50 ([8]; BRET): 0.064 nM | Bias factor toward G-protein, mMOR [9]: 404 | Gi Emax mMOR [9]: 59±2.2 | Gi pEC50±SEM mMOR [9]: 10.3±0.02 | EC50 ([9]; read-out: Gi EC50 mMOR): 0.054 nM | Arrestin Emax mMOR [10]: 75±13.9 | Arrestin pEC50±SEM mMOR [10]: 4.9±0.3 | EC50 ([10]; read-out: Arrestin EC50 mMOR): 11300 nM | Bias factor toward G protein, hKOR [11]: 0.2 | Gi Emax hKOR ([11]; cAMP inhibition, normalized to Emax of U50,488H): 106±0.7 | EC50 ([12]; [35S]GTPγS, nM ± SEM): 0.22 ± 0.02 nM | mKOR Emax ([12]; [35S]GTPγS, relative to U50,488H): 102 ± 4% | EC50 ([13]; mDOR, BRET): 0.48 nM | G-Protein activation pEC50 ± SEM ([13]; mDOR, BRET): 9.3 ± 0.10 | G-Protein activation Emax % ± SEM [13, 22]: 108 ± 3.7% | EC50 ([14]; [35S]GTPγS, nM ± SEM): 0.49 ± 0.12 nM | mMOR Emax ([14]; [35S]GTPγS, relative to DAMGO): 101 ± 3% | Arrestin recruitment pEC50 ± SEM ([15]; mDOR, BRET): 7.5 ± 0.2 | EC50 ([15]; mDOR, BRET): 26.6 nM | Arrestin recruitment Emax % ± SEM [15, 22]: 88 ± 6.8% | Ki [16]: 0.03 ± 0.001 nM | Arrestin recruitment pEC50 ± SEM ([17]; hDOR, Tango): 7.8 ± 0.06 | EC50 ([17]; hDOR, Tango): 14.1 nM | Arrestin recruitment Emax % ± SEM ([17]; hDOR, Tango, normalized to DPDPE or DADLE): 224 ± 5% | Arrestin pEC50±SEM hKOR ([18]; Tango, WT-hKOR): 10.9±0.07 | EC50 ([18]; Tango, WT-hKOR): 0.013 nM | Arrestin Emax hKOR ([18]; Tango, normalized to Emax of U50,488H): 109±1.8

O=C(N[C@@H]1CCC2C3Cc4ccc(O)c5c4C2(CCN3CC2CC2)C1O5)c1cccc(I)c1 (stereo partly drawn) [MP1202, N-((7R,1265)-3-(Cyclopropylmethyl)-9-hydroxy-2,3,4,4a,5,6,7,7a-octahydro-1H-4,12-methanobenzofuro[3,2-e]isoquinolin-7-yl)-3-iodobenzamide]
Emax [2]: 53 ± 2% | EC50 ([2]; Tango): 26.8 nM | Emax [4]: 71 ± 2% | Emax [19]: 55 ± 2.6% | EC50 ([19]; Tango): 3.4 nM | arrestin recruitment at Y312W-hKOR ([19]; Tango, compared with wild-type KOR): reduced arrestin recruitment | Bias factor toward G protein, hMOR [5]: 31 | EC50 [5]: 0.077 nM | Emax ([5]; HEK-293T, read-out: Gi Emax hMOR): 92 ± 1.4% | Emax [6]: 77 ± 5% | EC50 ([6]; BRET): 1.44 nM | Bias factor toward G-protein, Y312W-hKOR ([20]; cAMP inhibition vs Tango, against U50,488H as control): 33 and 34 | EC50 ([20]; cAMP inhibition, read-out: Gi pEC50±SEM Y312W-hKOR (converted)): 0.0204 nM | Emax ([20]; read-out: Gi Emax Y312W-hKOR): 101 ± 1.5% | EC50 ([7]; hDOR): 8.18 nM | Emax ([7]; read-out: cAMP inhibition Emax % ± SEM): 99 ± 2.2% | Bias factor toward G-protein, rKOR [8]: 0.39 and 0.4 | EC50 ([8]; BRET): 0.134 nM | Emax ([8]; read-out: Gi Emax rKOR): 104 ± 2% | Bias factor toward G-protein, mMOR [9]: 58 | Emax ([9]; read-out: Gi Emax mMOR): 61 ± 1.5% | Emax ([10]; read-out: Arrestin Emax mMOR): 53 ± 1.6% | Emax ([11]; HEK-293T, read-out: Gi Emax hKOR): 110 ± 1% | Bias factor toward G protein, hKOR [11]: 0.6 | EC50 ([11]; cAMP inhibition, read-out: Gi EC50 hKOR): 0.0016 nM | Emax [12]: 94 ± 5% | Emax ([13]; read-out: G-Protein activation Emax % ± SEM): 103 ± 4.6% | Emax [14]: 68 ± 1% | EC50 ([15]; mDOR, BRET): 525 nM | Emax [15, 23]: 26 ± 2.3% | EC50 ([17]; hDOR, Tango): 18.1 nM | Emax [17, 23]: 26 ± 3.1% | Emax [18]: 101 ± 1% | EC50 ([18]; Tango, WT-hKOR): 0.0457 nM
